Data reported in patent US10894798B2, “Substituted dihydropyrrolopyrazole derivative” (UBE INDUSTRIES, LTD., priority 2015, dated 2021).

Tests used:
[1] = tested on: medulloblastoma cell line Daoy; experiment: Various human cancer cell growth inhibition test: Daoy; type: cell-based; conditions: ATPlite, read-out: GI50 value (concentration necessary for inhibiting 50% of cell growth)
Text: (§1) A breast cancer cell line BT-549 (obtained from American Type Culture Collection (ATCC)), a uterus cancer cell line C-33A (obtained from ATCC), an ovary cancer cell line PA-1 (obtained from ATCC), a large-cell lung cancer cell line NCI-H460 (obtained from ATCC), a small-cell lung cancer cell line NCI-H82 (obtained from ATCC), a kidney cancer cell line ACHN (obtained from ATCC), a pancreatic cancer cell line BxPC-3 (obtained from ATCC), a malignant melanoma cell line A375 (obtained from ATCC), a throat cancer cell line FaDu (obtained from ATCC), a medulloblastoma cell line Daoy (obtained from ATCC), a cutaneous epithelioid sarcoma cell line VA-ES-BJ (obtained from ATCC), a rhabdomyosarcoma cell line A-204 (obtained from ATCC), a prostate cancer cell line DU145 (obtained from ATCC), a bladder cancer cell line T24 (obtained from ATCC), a lymphoma cell line SR (obtained from ATCC), a neuroblastoma cell line SH-SY5Y (obtained from DS Pharma Biomedical Co., Ltd.), a liver cancer cell line HepG2 (obtained from DS Pharma Biomedical Co., Ltd.), a stomach cancer cell line HGC-27 (obtained from DS Pharma Biomedical Co., Ltd.), and a multiple myeloma cell line NCI-H929 (obtained from DS Pharma Biomedical Co., Ltd.) were used as human cancer cell lines.
(§2) Each cell line was cultured in a cell culture medium recommended by ATCC or DS Pharma Biomedical Co., Ltd. and inoculated at 0.3 to 5.0×10^3 cells/well to a 96-well plate. The cells were cultured overnight in a carbon dioxide incubator of 37° C. containing 5% carbon dioxide. The medium was replaced with a fresh medium on the next day, then replaced with a mixed solution of a DMSO solution of a test compound with varying concentrations and a culture medium (final DMSO concentration: 0.1%), and left standing in a carbon dioxide incubator (day 0). IV-361, IV-379, IV-3, IV-215, IV-299, IV-669, IV-1049, and palbociclib (for comparison) were used as test compounds. For a control group, DMSO was added instead of the DMSO solution of the test compound to a cell culture medium (final DMSO concentration: 0.1%).
(§3) After culture for a predetermined period, the ATP activity of BT-549, C-33A, PA-1, NCI-H460, NCI-H82, ACHN, BxPC-3, A375, FaDu, Daoy, VA-ES-BJ, A-204, DU145, T24, and SR was measured by using ATPlite (manufactured by PerkinElmer, Inc.). The ATP activity of SH-SY5Y, HepG2, HGC-27, and NCI-H929 was measured by using CellTiter-Glo (manufactured by Promega Corp.).
(§4) The rate of inhibition of cell growth (%) was calculated according to the expression given below. Specifically, in the case where the difference between the ATP activity before culture (day 0) and the ATP activity after culture in the test compound-administered group is the same as the difference between the ATP activity before culture (day 0) and the ATP activity after culture in the control group, the rate of inhibition of cell growth is 0%. Rate of inhibition of cell growth=(1−((ATP activity of the test compound-administered group after culture)−(ATP activity of the test compound-administered group on day 0))/((ATP activity of the control group after culture)−(ATP activity of the control group on day 0)))×100
(§5) The concentration of the test compound necessary for inhibiting 50% of cell growth (GI50 value) was calculated by using EXSUS (version 8.1.0, manufactured by CAC Exicare Corp.).

[2] = tested on: uterus cancer cell line C-33A; experiment: Various human cancer cell growth inhibition test: C-33A; type: cell-based; conditions: ATPlite, read-out: GI50 value (concentration necessary for inhibiting 50% of cell growth)
Text: as §1, §2, §3, §4, §5

[3] = tested on: throat cancer cell line FaDu; experiment: Various human cancer cell growth inhibition test: FaDu; type: cell-based; conditions: ATPlite, read-out: GI50 value (concentration necessary for inhibiting 50% of cell growth)
Text: as §1, §2, §3, §4, §5

[4] = tested on: mouse imiquimod-induced psoriasis model; experiment: Ear thickening suppression test using mouse imiquimod-induced psoriasis model; type: in vivo; conditions: topical, application of a 0.01% solution in methanol, female BALB/c mice, read-out: rate of inhibition of increase in ear thickness
Method: An imiquimod-induced psoriasis model test was carried out by modifying the method of Leslie van der Fits et al. (J. Immunol. 182, 5836 (2009)).
Female BALB/c mice (supplied by Charles River Laboratories Japan, Inc.) were used as laboratory animals. On the start day of the test, the thicknesses of the right auricles of the mice were measured with a thickness gauge (manufactured by TECLOCK Corp.). A test compound or a solvent was applied or orally administered thereto, and after a certain time, a certain amount of Beselna Cream 5% (containing 5% imiquimod, manufactured by Mochida Pharmaceutical Co., Ltd.) was applied to the insides of the right auricles. The test compound or solvent application or oral administration and the imiquimod application were carried out for a certain period, and the thicknesses of the right auricles were measured again on the final day. The thicknesses of the right auricles were compared between the solvent-administered group and the test compound group, and the rate of inhibition was calculated.

[5] = tested on: rhabdomyosarcoma cell line A-204; experiment: Various human cancer cell growth inhibition test: A-204; type: cell-based; conditions: A204, ATPlite, read-out: GI50 value (concentration necessary for inhibiting 50% of cell growth)
Text: as §1, §2, §3, §4, §5

IL-2 production = experiment: Human PBMC CD3/CD28-induced IL-2 production inhibition test; type: cell-based; conditions: 48 h; human PBMC, CD3/CD28 stimulation, culture for 2 days, ELISA; read-out: IC50 value, IL-2 production inhibition
Method: PBMC (peripheral blood mononuclear cell) was separated and collected by using Ficoll-Paque (manufactured by GE Healthcare Japan Corp.) from blood collected from a healthy human adult in the presence of heparin. A RPMI1640 medium containing 10% FBS, 1% penicillin/streptomycin/amphotericin B, essential amino acids, and pyruvic acid and containing a test compound dissolved in DMSO and 2 μg/mL CD28 was added at 100 μL/well to T cell Activation Plate Anti-Human CD3 96-well plate (manufactured by Becton, Dickinson and Company), and subsequently, a PBMC suspension prepared such that the number of cells was 2×10^6 cells/mL was added thereto at 100 μL/well (final DMSO concentration: 0.1%). A RPMI1640 medium containing 10% FBS and containing 0.1% DMSO and 2 μg/mL CD28 was similarly added to wells not supplemented with the test compound. After culture for 2 days in a carbon dioxide incubator, the culture supernatant was collected. The collected culture supernatant was stored at −20° C. until IL-2 content measurement.
In the measurement of an L-2 content in the culture supernatant, a sandwich ELISA kit (Quantikine Human IL-2, manufactured by R&D Systems, Inc.) was used. The L-2 content of each sample was calculated from the calibration curve of Standard IL-2 included in the kit. […] A test compound concentration necessary for inhibiting 50% of L-2 production (IC50 value) was calculated from the concentration of the added test compound and the rate of inhibition of IL-2 production by the test compound by using EXSUS (version 8.1.0, manufactured by CAC Exicare Corp.).

[6] = tested on: prostate cancer cell line DU145; experiment: Various human cancer cell growth inhibition test: DU145; type: cell-based; conditions: DU 145, ATPlite, read-out: GI50 value (concentration necessary for inhibiting 50% of cell growth)
Text: as §1, §2, §3, §4, §5

Row | GI50 [1] [nM] | GI50 [2] [nM] | GI50 [3] [nM] | GI50 [5] [nM] | IC50 (IL-2 production) [nM] | GI50 [6] [nM] | SMILES | inhibition in vivo at 0.01 % [4] [%]
1 | < 300 | < 300 | < 300 | < 300 | ≤ 100 | < 300 | Cc1cccc(Cl)c1NC(=O)N1Cc2c(NC(=O)C3([Si](C)(C)C)CCC3)n[nH]c2C1(C)C [IV-215, N-(2-Chloro-6-methylphenyl)-6,6-dimethyl-3-[1-(trimethylsilyl)cyclobutanecarboxamido]-4,6-dihydropyrrolo[3,4-c]pyrazole-5 (1H)-carboxamide] | ≥ 50
2 | < 300 | < 300 | < 300 | < 300 | ≤ 100 | < 300 | Cc1cccc(Br)c1NC(=O)N1Cc2c(NC(=O)C3([Si](C)(C)C)CCC3)n[nH]c2C1(C)C [IV-299, N-(2-Bromo-6-methylphenyl)-6,6-dimethyl-3-[1-(trimethylsilyl)cyclobutanecarboxamido]-4,6-dihydropyrrolo[3,4-c]pyrazole-5 (1H)-carboxamide] | ≥ 50
3 | < 300 | < 300 | < 300 | < 300 | ≤ 100 | < 300 | CC1(C)c2[nH]nc(NC(=O)C3([Si](C)(C)C)CCC3)c2CN1C(=O)Nc1c(F)ccc2ccoc12 [IV-1049, N-(6-Fluorobenzofuran-7-yl)-6,6-dimethyl-3-[1-(trimethylsilyl)cyclobutanecarboxamido]-4,6-dihydropyrrolo[3,4-c]pyrazole-5 (1H)-carboxamide] | 
